Reference: patent US20120214784A1, “SPIROPIPERIDINE COMPOUNDS AS ORL-1 RECEPTOR ANTAGONISTS” (ELI LILLY AND COMPANY, priority 2009, published 2012)

Columns and labels:
[1] = system: wild type and ORL knockout mice; assay: Blockade of fasting-induced hyperphagia in mice; format: in vivo, mouse; details: wild type mice, oral gavage 30 min. prior to food, food intake 1 hr
From the text: Blockade of fasting-induced hyperphagia in rats is an accepted model for hyperphagic eating disorders. […] Mice are individually housed a minimum of 3 days prior to the onset of testing to eliminate any effects of stress due to the change from group to individual housing. Three mice/genotype are randomly assigned to each treatment group on the test day. Pre-fast body weight measurements are taken, and food is then removed from cages overnight. Mice are fasted for approximately 15 hr. The next morning, the mice are given one of three doses of drug or vehicle via oral gavage 30 min. prior to gaining access to food. Drugs are dissolved in 20% Captisol dissolved in 25 mM phosphate buffer, pH 2.0. Measurements of body weight are taken immediately prior to drug treatment or 24 hr. after access to food is restored. […] Measurements of food intake are recorded 1 hr following access to food, as indicated, by weight of food remaining at 1 hr. It should be noted that food intake measured is during the light phase, a time during which mice are typically at rest and not normally eating. Following initial testing, mice are rested for 1 week with access to unlimited chow.

[2] = target: T1, cloned human ORL1 receptors (Homo sapiens, UniProt P41146); assay: [3H]-OFQ/nociceptin receptor binding assay
T1 construct: expressed in transfected cells; host or cells: CHO cells (membranes)
Method: (§1) Radioligand binding assays are commonly used to determine the affinity (Ki) or potency of a compound to bind to a particular receptor or target protein. A filtration-based [3H]-OFQ/nociceptin receptor binding assay is developed based on previous assay formats (Ardati A, Henningsen R A, Higelin J, Reinscheid R K, Civelli O, Monsma F J Jr. Mol. Pharmacol. 1997 May; 51(5):816-24.) with minor modifications. [3H]-OFQ/nociceptin binding assays are carried out in deep-well 96-well plates. [^3H]OFQ (final assay concentration 0.2 nM) competition studies are carried out with 5-10 μg of membrane protein (isolated from Chinese hamster ovary cells (CHO cells) expressing cloned human ORL1 receptors) in a final assay volume of 0.5 mL of buffer containing 20 mM HEPES, pH 7.4, 5 mM MgCl2, 1 mM EGTA, 100 mM NaCl, 0.1% bovine serum albumin. Samples are incubated for 60 min. at room temperature, which is found to be optimal for competition assays. The assays are terminated by filtration through glass fiber filters (Wallac filtermat A) [pretreated with 0.3% polyethylenimine (Sigma) for 1 hr] on a Tometc cell harvester, and the filters are washed three times with 5 mL of ice-cold 50 mM Tris.HCl, pH 7.4. Filtermats are then dried and imbedded with Meltilex scintillant A and the radioactivity counted in a Wallac Microbeta scintillation counter. Specific binding is determined by displacement with 100 nM unlabeled nociceptin. Curves are plotted as the percent of specific binding and IC50 values are determined using a sigmoidal dose response curve with variable slope. K, values are calculated from the IC50 by the equation of Cheng and Prusoff (Cheng, Y. C., and Prusoff, W. H., Biochem. Pharmacol. 22, 3099-3108 (1973)) where Ki=IC50×(1+D×Kd^−1)^−1. Similarly, Ki for the mu, kappa and delta opioids, serotonin, adrenergic, and muscarinic receptors may be determined using membranes expressing the desired receptor and appropriate corresponding radioligand competitor molecules.

[3] = target: T2, nociceptin/ORL1 receptors (Rattus norvegicus, UniProt P35370); assay: In vivo receptor occupancy (LC/MS/MS, RO Tracer) in hypothalamus; details: oral 3 mg/kg dose after 6 hr.
T2 construct: rats are sacrificed by cervical dislocation and the hypothalamus is removed; from tissue; host or cells: rat hypothalamus (in vivo occupancy)

[4] = target: 5-HT2B (Homo sapiens, UniProt P41595); assay: Radioligand binding selectivity
Method: as §1

[5] = target: 5-HT2A (Homo sapiens, UniProt P28223); assay: Radioligand binding selectivity; details: 5-HT2A; read-out: Ki
Method: as §1

[6] = target: 5-HT1E (Homo sapiens, UniProt P28566); assay: Radioligand binding selectivity; details: 5-HT1E; read-out: Ki
Method: as §1

[7] = target: 5-HT6 (Homo sapiens, UniProt P50406); assay: Radioligand binding selectivity; details: 5-HT6; read-out: Ki
Method: as §1

[8] = target: 5-HT2C (Homo sapiens, UniProt P28335); assay: Radioligand binding selectivity; details: 5-HT2C; read-out: Ki
Method: as §1

[9] = target: 5-HT5 (Homo sapiens, UniProt P47898); assay: Radioligand binding selectivity; details: 5-HT5; read-out: Ki
Method: as §1

[10] = target: 5-HT1B (Homo sapiens, UniProt P28222); assay: Radioligand binding selectivity; details: 5-HT1B; read-out: Ki
Method: as §1

[11] = target: 5-HT4 (Homo sapiens, UniProt Q13639); assay: Radioligand binding selectivity; details: 5-HT4; read-out: Ki
Method: as §1

[12] = target: 5-HT1D (Homo sapiens, UniProt P28221); assay: Radioligand binding selectivity; details: 5-HT1D; read-out: Ki
Method: as §1

[13] = target: 5-HT7 (Homo sapiens, UniProt P34969); assay: Radioligand binding selectivity; details: 5-HT7; read-out: Ki
Method: as §1

[14] = target: 5-HT1F (Homo sapiens, UniProt P30939); assay: Radioligand binding selectivity
Method: as §1

[15] = target: T3, cloned human ORL1/nociceptin receptors (Homo sapiens, UniProt P41146); assay: Functional blockade of agonist-mediated G-protein activation, GTP-γ-[35S] binding; format: biochemical
T3 construct: expressed in transfected cells
From the text: Agonist-mediated stimulation of G-protein coupled receptors results in the activation of membrane associated Gαβγ-protein heterotrimer complexes, and represents the first step in the transduction of extracellular signals to modification of intracellular pathways. The first step in activation of receptor-mediated activation of Gαβγ-proteins heterotrimer is the exchange of Gα subunit bound guanosine diphoshpate (GDP) for guanosine triphosphate (GTP). The binding of GTP to the Gα subunit causes dissociation of the heterotrimer subunits, Gβ and Gγ, resulting in the modulation of several intracellular signaling cascades. Measurement of receptor-mediated G-protein activation can be measured using the non-hydrolyzable radiolabeled analog of GTP, GTP-γ-[35S]. Utilizing this methodology, antagonist affinity (Kb) is measured in membranes expressing cloned human ORL1/nociceptin receptors using a GTP-γ-[35S] binding assay according to previously described protocols with minor modifications (DeLapp et al., J Pharmacol Exp Ther. 1999 May; 289(2):946-55; Ozaki et al., Eur J Pharmacol. 2000 Aug. 18; 402(1-2):45-53). Assays are conducted in a 200-μl volume with the following buffer composition: 100 mM NaCl, 20 mM HEPES, 5 mM MgCl2, 1 mM EDTA, 0.1% BSA, 3 μM GDP, 0.5 nM [^35S]GTPγS. ORL1 receptor membrane suspension is added at a concentration of 20 μg protein per well and receptor stimulation is achieved using 300 nM nociceptin/OFQ. Wheat germ agglutinin coated SPA beads (Amersham, Arlington Hts., Ill.) are added at 1 mg per well to detect membrane-bound [^35S]GTPγS. Plates are sealed and incubated for 2 hr. at room temperature. Plates are then placed at 4° C. overnight to allow the SPA beads to settle and then counted in a Wallac Microbeta. Specific [^35S]GTPγS binding is determined as the difference in CPM observed in the absence and presence of 10 μM unlabeled GTPγS. Data are plotted as the percent of specific [^35S]GTPγS bound. Curves are plotted as the percent of specific binding and IC50 values are determined using a sigmoidal dose response curve with variable slope. Antagonist affinity (Kb) is estimated according to DeLapp et al., 1999 using a modification of the equation of Cheng and Prusoff (1973) where Kb=IC50×(1+D×EC50^−1)^−1.

[16] = target: human ERG (hERG) K+ channel (Homo sapiens, UniProt Q12809); assay: hERG channel [3H]astemizole binding assay
Method: Blockade of K^+-channel conductance in the heart is associated with cardiotoxicity in the form of QT-wave prolongation. The affinity (Ki) of the exemplified nociceptin receptor antagonists for the human ERG (hERG) K^+ channel is determined in HEK293 cells expressing cloned hERG using the hERG channel antagonist radioligand [3H]astemizole (2 nM final assay concentration) according to well known procedures (see for example Finlayson K, et al. (Eur J Pharmacol. 412(3):203-12, 2001) [3H]Astemizole binding assays are performed at the contract research company Cerep (Paris France) according to standard procedures.

Chain of 5-HT1F (P30939 whole entry, species assumed): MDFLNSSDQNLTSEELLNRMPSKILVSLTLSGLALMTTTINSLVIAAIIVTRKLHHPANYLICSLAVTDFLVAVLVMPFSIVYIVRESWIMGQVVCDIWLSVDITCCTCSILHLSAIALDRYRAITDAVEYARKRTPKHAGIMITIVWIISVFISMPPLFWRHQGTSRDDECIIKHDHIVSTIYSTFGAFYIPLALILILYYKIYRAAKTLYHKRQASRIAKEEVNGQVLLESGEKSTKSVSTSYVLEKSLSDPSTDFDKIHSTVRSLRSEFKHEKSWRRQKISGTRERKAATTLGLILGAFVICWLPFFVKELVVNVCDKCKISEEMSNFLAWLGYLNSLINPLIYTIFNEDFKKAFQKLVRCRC
T2 sequence (P35370 whole entry): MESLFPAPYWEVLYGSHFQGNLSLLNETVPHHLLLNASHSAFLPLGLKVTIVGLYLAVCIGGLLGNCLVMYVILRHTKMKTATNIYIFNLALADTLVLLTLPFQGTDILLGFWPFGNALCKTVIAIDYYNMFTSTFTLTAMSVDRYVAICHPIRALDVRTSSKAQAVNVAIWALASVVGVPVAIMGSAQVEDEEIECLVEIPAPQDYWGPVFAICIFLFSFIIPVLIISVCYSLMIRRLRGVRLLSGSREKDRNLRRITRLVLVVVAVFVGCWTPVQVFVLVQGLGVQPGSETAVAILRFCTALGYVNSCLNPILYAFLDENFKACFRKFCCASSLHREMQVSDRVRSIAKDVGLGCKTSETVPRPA
Chain of human ERG (hERG) K+ channel (Q12809 whole entry): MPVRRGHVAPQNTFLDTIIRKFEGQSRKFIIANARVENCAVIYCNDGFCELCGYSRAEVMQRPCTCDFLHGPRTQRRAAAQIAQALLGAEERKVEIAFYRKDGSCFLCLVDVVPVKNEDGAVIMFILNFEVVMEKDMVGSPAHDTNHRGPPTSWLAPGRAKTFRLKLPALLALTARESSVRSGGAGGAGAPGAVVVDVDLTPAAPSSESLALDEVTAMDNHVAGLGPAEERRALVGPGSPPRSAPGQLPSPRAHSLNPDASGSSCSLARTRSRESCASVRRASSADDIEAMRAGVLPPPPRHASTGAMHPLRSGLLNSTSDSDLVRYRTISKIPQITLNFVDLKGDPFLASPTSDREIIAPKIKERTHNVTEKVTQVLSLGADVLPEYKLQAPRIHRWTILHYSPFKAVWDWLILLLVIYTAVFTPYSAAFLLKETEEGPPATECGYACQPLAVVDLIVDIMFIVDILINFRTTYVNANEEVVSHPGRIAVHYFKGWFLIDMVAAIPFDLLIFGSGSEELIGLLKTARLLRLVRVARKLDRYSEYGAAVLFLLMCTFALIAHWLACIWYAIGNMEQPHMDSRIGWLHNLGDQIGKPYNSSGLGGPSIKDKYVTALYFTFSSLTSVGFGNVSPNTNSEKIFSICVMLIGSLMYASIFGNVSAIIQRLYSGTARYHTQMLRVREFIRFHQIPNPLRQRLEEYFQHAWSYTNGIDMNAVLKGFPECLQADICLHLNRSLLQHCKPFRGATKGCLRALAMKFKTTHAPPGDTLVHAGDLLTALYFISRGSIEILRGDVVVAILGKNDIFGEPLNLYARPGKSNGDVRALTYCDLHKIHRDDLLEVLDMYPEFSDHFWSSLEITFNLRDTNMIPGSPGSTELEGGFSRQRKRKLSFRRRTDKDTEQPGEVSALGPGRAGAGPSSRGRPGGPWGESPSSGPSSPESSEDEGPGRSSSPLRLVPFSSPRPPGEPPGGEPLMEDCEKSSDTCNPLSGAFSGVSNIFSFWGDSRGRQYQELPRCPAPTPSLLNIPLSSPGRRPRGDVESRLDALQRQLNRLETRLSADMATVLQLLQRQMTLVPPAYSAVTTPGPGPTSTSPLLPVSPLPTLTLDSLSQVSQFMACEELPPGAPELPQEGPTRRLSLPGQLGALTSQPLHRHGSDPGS
Chain of 5-HT2B (P41595 whole entry, species assumed): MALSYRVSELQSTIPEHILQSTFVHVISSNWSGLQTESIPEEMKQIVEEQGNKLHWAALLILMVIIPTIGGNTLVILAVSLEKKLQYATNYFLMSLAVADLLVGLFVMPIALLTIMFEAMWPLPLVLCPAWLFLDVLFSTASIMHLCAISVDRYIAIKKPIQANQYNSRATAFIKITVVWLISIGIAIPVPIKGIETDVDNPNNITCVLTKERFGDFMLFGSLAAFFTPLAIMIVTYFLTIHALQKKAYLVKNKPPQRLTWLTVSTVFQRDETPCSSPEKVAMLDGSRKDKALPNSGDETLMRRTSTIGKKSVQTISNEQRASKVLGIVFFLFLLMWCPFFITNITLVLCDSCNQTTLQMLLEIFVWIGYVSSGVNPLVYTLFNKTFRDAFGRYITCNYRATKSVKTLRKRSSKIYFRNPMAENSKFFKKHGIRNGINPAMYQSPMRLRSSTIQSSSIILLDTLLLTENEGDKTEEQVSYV
Chain of 5-HT1D (P28221 whole entry, species assumed): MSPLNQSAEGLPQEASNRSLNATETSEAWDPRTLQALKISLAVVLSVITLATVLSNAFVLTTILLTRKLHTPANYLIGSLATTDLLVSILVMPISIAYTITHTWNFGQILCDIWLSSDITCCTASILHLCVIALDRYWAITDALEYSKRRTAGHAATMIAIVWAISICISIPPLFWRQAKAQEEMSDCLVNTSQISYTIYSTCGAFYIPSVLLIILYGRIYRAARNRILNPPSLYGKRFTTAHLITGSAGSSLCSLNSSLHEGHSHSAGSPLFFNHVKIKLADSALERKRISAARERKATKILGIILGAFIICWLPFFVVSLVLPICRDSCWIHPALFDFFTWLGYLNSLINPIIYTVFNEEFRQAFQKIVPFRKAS
Chain of 5-HT4 (Q13639 whole entry, species assumed): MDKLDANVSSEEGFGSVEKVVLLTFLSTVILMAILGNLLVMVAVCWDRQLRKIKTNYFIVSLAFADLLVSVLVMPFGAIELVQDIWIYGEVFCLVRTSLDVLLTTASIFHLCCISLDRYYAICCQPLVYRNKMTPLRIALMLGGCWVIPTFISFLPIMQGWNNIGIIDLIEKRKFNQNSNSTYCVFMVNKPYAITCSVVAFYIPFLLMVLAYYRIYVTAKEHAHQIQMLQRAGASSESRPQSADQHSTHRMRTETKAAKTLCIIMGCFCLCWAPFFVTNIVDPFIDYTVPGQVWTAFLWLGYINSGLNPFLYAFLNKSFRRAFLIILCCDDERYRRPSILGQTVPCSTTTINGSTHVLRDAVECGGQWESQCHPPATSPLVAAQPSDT
Chain of 5-HT6 (P50406 whole entry, species assumed): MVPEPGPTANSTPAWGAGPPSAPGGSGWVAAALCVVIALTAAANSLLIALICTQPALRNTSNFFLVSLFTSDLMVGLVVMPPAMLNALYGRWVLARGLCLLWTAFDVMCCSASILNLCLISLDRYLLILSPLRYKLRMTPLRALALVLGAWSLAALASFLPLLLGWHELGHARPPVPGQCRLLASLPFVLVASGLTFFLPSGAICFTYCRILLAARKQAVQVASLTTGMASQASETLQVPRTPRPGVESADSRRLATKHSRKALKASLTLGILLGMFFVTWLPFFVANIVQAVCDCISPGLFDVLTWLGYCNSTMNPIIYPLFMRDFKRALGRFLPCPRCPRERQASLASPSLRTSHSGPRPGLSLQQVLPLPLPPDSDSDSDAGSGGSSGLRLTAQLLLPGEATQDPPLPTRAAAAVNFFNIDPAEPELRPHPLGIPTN
Chain of 5-HT5 (P47898 whole entry, species assumed): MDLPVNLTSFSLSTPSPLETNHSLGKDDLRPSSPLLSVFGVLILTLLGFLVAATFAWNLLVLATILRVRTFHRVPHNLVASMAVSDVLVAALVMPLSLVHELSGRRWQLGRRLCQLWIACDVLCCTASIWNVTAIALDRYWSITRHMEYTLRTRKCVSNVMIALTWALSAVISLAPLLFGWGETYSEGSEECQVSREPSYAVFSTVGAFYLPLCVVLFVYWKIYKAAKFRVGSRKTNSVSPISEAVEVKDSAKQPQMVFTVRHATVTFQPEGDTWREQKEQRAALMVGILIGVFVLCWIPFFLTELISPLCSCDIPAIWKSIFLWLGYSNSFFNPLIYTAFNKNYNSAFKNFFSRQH
Chain of 5-HT2A (P28223 whole entry, species assumed): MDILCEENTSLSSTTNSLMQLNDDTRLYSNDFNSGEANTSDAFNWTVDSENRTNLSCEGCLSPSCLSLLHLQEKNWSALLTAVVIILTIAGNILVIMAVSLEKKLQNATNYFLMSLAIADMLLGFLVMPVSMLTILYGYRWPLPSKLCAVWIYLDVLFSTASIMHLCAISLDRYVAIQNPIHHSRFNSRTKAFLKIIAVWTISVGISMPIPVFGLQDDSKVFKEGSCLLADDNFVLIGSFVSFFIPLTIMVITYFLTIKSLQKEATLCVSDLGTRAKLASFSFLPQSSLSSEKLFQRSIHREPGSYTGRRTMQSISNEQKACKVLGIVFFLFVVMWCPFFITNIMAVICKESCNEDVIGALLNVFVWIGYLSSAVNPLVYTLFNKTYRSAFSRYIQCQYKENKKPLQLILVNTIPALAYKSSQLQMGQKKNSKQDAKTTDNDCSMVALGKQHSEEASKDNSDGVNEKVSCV
Chain of 5-HT1E (P28566 whole entry, species assumed): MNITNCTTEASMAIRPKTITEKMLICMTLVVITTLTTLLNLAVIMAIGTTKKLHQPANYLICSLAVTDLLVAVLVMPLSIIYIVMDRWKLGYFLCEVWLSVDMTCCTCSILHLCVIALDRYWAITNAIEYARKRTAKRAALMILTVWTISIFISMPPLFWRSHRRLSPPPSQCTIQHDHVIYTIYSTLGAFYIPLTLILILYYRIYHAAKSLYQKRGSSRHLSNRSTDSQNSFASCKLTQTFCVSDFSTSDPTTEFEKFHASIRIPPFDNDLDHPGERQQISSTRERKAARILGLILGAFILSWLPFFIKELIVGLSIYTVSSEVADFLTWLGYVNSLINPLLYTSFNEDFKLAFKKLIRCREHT

With `OCc1nn(-c2c(F)cccc2F)cc1CN1CCC2(CC1)OCC(F)(F)c1cc(Cl)sc12` [Example 50, [4-[(2-Chloro-4,4-difluoro-spiro[5H-thieno[2,3-c]pyran-7,4′-piperidine]-1′-yl)methyl]-1-(2,6-difluorophenyl)pyrazol-3-yl]methanol] the fasting-induced hyperphagia [1] was “substantially block fasting-induced hyperphagia”, the Ki [2] was 0.89 nM and the receptor occupancy at 3 mg/kg [3] was 81%. It also gave a Ki [4] of 42.9 nM, a Ki [5] of over 5 µM and a Ki [6] of over 5.37 µM. It also gave a Ki [7] of over 5.83 µM, a Ki [8] of 4.75 µM and a Ki [9] of over 9.09 µM. For the same molecule, the Ki [10] was over 3.58 µM, the Ki [11] was over 4.12 µM and the Ki [12] was over 8.55 µM. For the same molecule, the Ki [13] was over 3.98 µM, the Ki [14] was over 8.52 µM and the Kb [15] was 0.54 nM. It also gave a Ki [16] of 7 µM.
